Legend:
[1] = test system: calcineurin-NFAT signaling; assay: NFAT-RE promoter luciferase reporter assay (NRE-Luc) in 293T cells; assay type: cell-based; details: IM and PMA (10 nM), 1, 3 and 10 μM
Experimental: Fig. 5. […] Firefly luciferase activities were measured using One-Glo reagents. Luciferase activity in the sample with reporter plasmid alone was set to 1, and the relative luciferase activities were calculated. Means±s.d. were determined from two independent experiments.
Treatment with IM and phorbol 12-myristate 13-acetate (PMA) induced a dramatic increase in luciferase activity (∼20 fold) as a result of the nuclear translocation of NFATc1 and the subsequent transcriptional activation (Fig. 5B). In this situation, the overexpression of DYRK1A suppressed the stimulatory effect of IM and PMA by 75%, resulting in a 4.5-fold increase in luciferase activity compared with that of the control (Fig. 5B).
The firefly luciferase reporter assay was performed using a One-Glo Assay System (Promega) according to the manufacturer's instructions. The transcriptional activity of NFATc1 in 293T cells was measured with a reporter vector (pGL4.30 luc2P/NFAT-RE/Hygro) (Promega) that expresses the firefly luciferase gene under the control of an NFAT-RE promoter. 293T cells were transfected with the DYRK1A-expressing plasmid and reporter plasmid. On the next day, cells were treated with IM (2.5 μM) and phorbol-12-myristate-13-acetate (10 nM) along with the indicated amounts of inhibitors. Cells were further incubated for 8 h and then cell lysates were harvested to measure luciferase activity.

DYRK1A [2] = target: T1, DYRK1A (Homo sapiens, UniProt Q13627); assay: DYRK1A-mediated Tau (T212) phosphorylation in transfected 293T cells, western blot; assay type: cell-based; design: expressed in transfected cells; host or cells: 293T cells; details: 6 h treatment, western blot, estimated, read-out: IC50 on Tau phosphorylation (T212) induced by DYRK1A overexpression
DYRK1A [3] = target: T1, DYRK1A; design: expressed in transfected cells; host or cells: 293T cells; method as in Ogawa et al., 2010; details: ref Ogawa et al., 2010; cited from earlier work
DYRK4 = target: T2, DYRK4 (Homo sapiens, UniProt Q9NR20); assay: In vitro kinase assay, recombinant human DYRK4 (Life Technologies); assay type: biochemical
T2 construct: purchased Life Technologies (Kinase Profiler service)
T2 sequence (Q9NR20 1-520): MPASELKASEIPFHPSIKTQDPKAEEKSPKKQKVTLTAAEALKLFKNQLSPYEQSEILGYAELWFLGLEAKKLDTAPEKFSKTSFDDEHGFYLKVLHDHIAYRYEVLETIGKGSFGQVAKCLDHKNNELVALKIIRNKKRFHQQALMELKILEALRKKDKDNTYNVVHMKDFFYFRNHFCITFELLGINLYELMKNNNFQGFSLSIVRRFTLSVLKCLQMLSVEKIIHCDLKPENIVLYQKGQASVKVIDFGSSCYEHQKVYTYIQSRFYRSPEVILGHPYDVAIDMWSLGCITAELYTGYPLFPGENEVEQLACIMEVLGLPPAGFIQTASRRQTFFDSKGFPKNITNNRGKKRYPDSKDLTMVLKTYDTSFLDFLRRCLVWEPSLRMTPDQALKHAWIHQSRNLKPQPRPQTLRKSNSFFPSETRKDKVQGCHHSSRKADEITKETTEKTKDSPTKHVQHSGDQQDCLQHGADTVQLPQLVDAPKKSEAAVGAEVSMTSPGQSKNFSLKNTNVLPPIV

DYRK3 = target: T3, DYRK3 (Homo sapiens, UniProt O43781); assay: In vitro kinase assay, recombinant human DYRK3 (Life Technologies); assay type: biochemical
T3 construct: purchased Life Technologies (Kinase Profiler service)
T3 sequence (O43781 1-588): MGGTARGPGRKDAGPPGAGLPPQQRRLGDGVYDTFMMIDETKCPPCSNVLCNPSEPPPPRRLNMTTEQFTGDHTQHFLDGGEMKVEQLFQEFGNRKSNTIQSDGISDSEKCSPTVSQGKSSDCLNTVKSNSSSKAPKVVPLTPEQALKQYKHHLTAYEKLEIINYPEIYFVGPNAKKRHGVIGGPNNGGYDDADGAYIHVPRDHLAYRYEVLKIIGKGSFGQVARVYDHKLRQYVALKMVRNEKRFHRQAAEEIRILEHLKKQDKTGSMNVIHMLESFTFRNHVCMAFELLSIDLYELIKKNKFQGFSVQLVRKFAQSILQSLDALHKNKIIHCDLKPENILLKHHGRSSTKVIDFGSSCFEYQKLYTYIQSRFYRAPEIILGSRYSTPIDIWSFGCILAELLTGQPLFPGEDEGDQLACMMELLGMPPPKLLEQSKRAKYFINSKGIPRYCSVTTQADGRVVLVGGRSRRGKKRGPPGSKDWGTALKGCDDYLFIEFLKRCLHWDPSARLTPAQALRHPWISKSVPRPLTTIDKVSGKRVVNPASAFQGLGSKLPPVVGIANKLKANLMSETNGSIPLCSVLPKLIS

[4] = test system: mnb-overexpressing Drosophila; assay: Wing vein (LV5) defect rescue in mnb-overexpressing flies (MS1096-gal4); assay type: in vivo, Drosophila melanogaster

IC50 (DYRK1A [2]) [nM] | Structure (SMILES) | NFATc1-dependent transcriptional activation (NRE-Luc) suppressed by DYRK1A overexpression [1] | DYRK1A inhibitory activity compared with harmine (DYRK1A [3]) | IC50 (DYRK4) [nM] | IC50 (DYRK3) [nM] | concentration required for a similar rescue of wing (LV5) defect [4] [µM]
~2000 | CCN1/C(=C/C(C)=O)Sc2ccc(OC(C)=O)cc21 [proINDY] | dose-dependently derepressed | slightly weaker inhibitory activities than harmine | – | – | –
– | CCN1/C(=C/C(C)=O)Sc2ccc(O)cc21 [INDY] | dose-dependently derepressed | slightly weaker inhibitory activities than harmine | – | – | –
– | COc1ccc2c(c1)[nH]c1c(C)nccc12 [harmine] | dose-dependently derepressed | – | 5880 | 563 | 10 to 25

Source: paper PMC5007978, “A chemical with proven clinical safety rescues Down-syndrome-related phenotypes in through DYRK1A inhibition” (Disease Models & Mechanisms, 2016)
